Consider 6 compounds from publication PMC7393355, “A FRET-based screening method to detect potential inhibitors of the binding of CNNM3 to PRL2” (Scientific Reports, 2020).

Assay [1] deals with binding of CNNM3-YPet and CyPet-PRL2 (CNNM3-PRL2 complex). Briefly: FRET-based inhibition test of the binding of CNNM3-YPet and CyPet-PRL2. Details: species or system human. The following applies: CNNM3-YPet 200 nM, CyPet-PRL2 200 nM, n = 6. As to the method:
FRET measurements were conducted in TBS (50 mM Tris–HCl (pH 8.0) and 150 mM NaCl). Proteins were mixed in 96-well plates and incubated at R.T. for 1 h. Fluorescence intensities were measured using an excitation wavelength of 435 nm and an emission wavelength of 530 nm with a Cytation 3 (BioTek).
The emission spectra were measured with each component at 200 nM using the Cytation 3 (BioTek) with 435 nm excitation (Supplementary Fig. 2), and the original data are shown in Supplementary Table 1. The FRET intensity was calculated by Eq. (1).1 IFRET=IA-raw-Dleakage-Adirect where IA-raw is the intensity measured at 530 nm with 435 nm excitation, Dleakage is the leakage of the donor emission into the acceptor wavelength (530 nm) upon donor excitation, and Adirect is the direct excitation of the acceptor with the donor wavelength (435 nm).
The inhibition of complex formation was assayed by pre-incubating the binding partner (200 nM) with inhibitory factors (1, 10 μM) for 20 min at R.T., followed by addition of the other protein (200 nM) (Figs. 3B, 4C). The effects of divalent cations (10 mM) and nucleotides (3 mM) were also assayed similarly (Fig. 5).
The peptides for the peptide inhibition test were synthesized by Shanghai Dechi Biosciences (Fig. 6C,D). The peptide sequences were as follows: peptide 1, IVQKVNNEGEGDPFYEVLG; peptide 2, […] (an S–S bond was formed between the cysteine residues, as verified by HPLC and mass spectrometry). The peptides were dissolved in TBS buffer at 10 mM before use.
FRET data were evaluated by subtracting backgrounds (fluorescence intensities of CyPet-PRL2, CNNM3-YPet and a blank well). All data analysis was performed using GraphPad Prism 6 (GraphPad Software) with the methods described in each legend.

In another assay the test system is PRL2. Briefly: Isothermal titration calorimetry (ITC) with PRL2. The class given is binding, human. As to conditions: 25 °C, cell 20 μM PRL2, syringe 200 μM ligand, 20 mM Tris-HCl pH 7.0, 50 mM NaCl, 1 mM TCEP, 2% DMSO, repeated twice. The method, then:
ITC experiments were performed by ITC200 (GE Healthcare, USA). PRL2 and CNNM3 CBS domain proteins were purified in Buffer A (20 mM Tris–HCl (pH 7.0), 50 mM NaCl, and 1 mM TCEP). JMS-053 (Aobious, USA) was dissolved in 100% DMSO at 10 mM, further diluted to 200 μM with Buffer A. The ITC cell was thermally equilibrated at 25 °C and then filled with 250 μl of 20 μM PRL2, while the syringe was filled with 40 μl of 200 μM JMS-053 or CNNM3 CBS protein. In the case of JMS-053, 2% DMSO at a final concentration was added into PRL2 protein solution. Data were analysed by Microcal Origin software.

For `Nc1ncnc2c1ncn2[C@@H]1O[C@H](COP(=O)(O)OP(=O)(O)O)[C@@H](O)[C@H]1O` [ADP, reference compound], the “alteration of FRET intensity by nucleotide” value in assay [1] (3 mM nucleotide) is 9.6%.

As to `N=C1C(=O)NC(=O)c2cc(-c3ccccc3)sc21` [JMS-053, reference compound], in assay [1], the “effect on the interaction between CNNM3 and PRL2 (in words)” value was “no effect”. Further, the “interaction with PRL2 by ITC (in words)” value in the assay with PRL2 was “no interaction”.

Consider `[Mg+2]` [Mg^2+], for which the “effect of divalent cation on FRET intensity (in words)” value in assay [1] (10 mM divalent cation) is reported as “no effect on the FRET intensity”.

`[Zn+2]` [Zn^2+]: the “decrease of FRET intensity by divalent cation” value in assay [1] (10 mM divalent cation) turned out to be 90.3%.

“IVQKVNNEGEGDPFYEVLG [peptide 1, shorter synthesized peptide derived from the CNNM CBS loop]”: the “effect of peptide on complex formation (in words)” value in assay [1] (peptide 100 μM) was “failed to interrupt complex formation”.

As for “LAICQRVNNEGEGDPFYEVCGIVT (an S–S bond was formed between the cysteine residues (disulfide) [peptide 2, longer CNNM CBS loop peptide with two residues mutated to cysteine to form an S–S bond]”, the results for the “inhibition of complex formation” value in assay [1] (peptide 100 μM) and in assay [1] (peptide 500 μM) were 20% and 50%, respectively.
